Measured values from patent US4983328A, “N-(4-(3-aminopropyl)aminobutyl)-2-(ω-gua nidino-fatty-acid-amido(-2-substituted-ethanamide, salt thereof, and process for preparation thereof” (Bristol-Myers Company, priority 1981, dated 1991).
Values after ≈ are worked out from the molar mass of the structure shown.

Columns and labels:
[1] = cumulative toxicity in mice (maximum tolerated dose, once a day for 6 consecutive days); settings: mouse, in vivo, ip, i.p. once a day for 6 consecutive days, total dose, read-out: Maximum Tolerated Dose (total dose not causing death)
Protocol: (§1) In Table 8 median lethal doses (LD50) of typical compounds of this invention are shown, measured in mice upon single intraperitoneal administration, as well as maximum tolerated doses in terms of total dose when a fixed amount per unit body weight was administered intraperitoneally to mice once a day for 6 consecutive days.
**Maximum value of the total dose not causing death when a fixed amount
per unit body weight is administered to mice once a day for 6 consecutive

[2] = system: mouse leukemia L-1210; assay: therapeutic effect on implanted cancer in mice (L-1210, survival over 30 days); type: in vivo, mouse (BDF1); settings: L1210, ip, 720 h, 6 days; for responders at 0.2 mg/kg / response vs control in vivo at 0.2 mg/kg: 0.20 mg/kg/day i.p.; for responders at 0.2 mg/kg / responders at 0.39 mg/kg / responders at 0.78 mg/kg / responders at 1.56 mg/kg / responders at 3.13 mg/kg / responders at 6.25 mg/kg / responders at 12.5 mg/kg / responders at 25 mg/kg / responders at 50 mg/kg: read-out: Number of mice survived for 30 days (converted); for response vs control in vivo at 0.2 mg/kg / response vs control in vivo at 0.39 mg/kg / response vs control in vivo at 0.78 mg/kg / response vs control in vivo at 1.56 mg/kg / response vs control in vivo at 3.13 mg/kg / response vs control in vivo at 6.25 mg/kg / response vs control in vivo at 12.5 mg/kg / response vs control in vivo at 25 mg/kg / response vs control in vivo at 50 mg/kg: read-out: Prolongation of survival period (%), T/C × 100; for responders at 0.39 mg/kg / response vs control in vivo at 0.39 mg/kg: 0.39 mg/kg/day i.p.; for responders at 0.78 mg/kg / response vs control in vivo at 0.78 mg/kg: 0.78 mg/kg/day i.p.; for responders at 1.56 mg/kg / response vs control in vivo at 1.56 mg/kg: 1.56 mg/kg/day i.p.; for responders at 3.13 mg/kg / response vs control in vivo at 3.13 mg/kg: 3.13 mg/kg/day i.p.; for responders at 6.25 mg/kg / response vs control in vivo at 6.25 mg/kg: 6.25 mg/kg/day i.p.; for responders at 12.5 mg/kg / response vs control in vivo at 12.5 mg/kg: 12.5 mg/kg/day i.p.; for responders at 25 mg/kg / response vs control in vivo at 25 mg/kg: 25 mg/kg/day i.p.; for responders at 50 mg/kg / response vs control in vivo at 50 mg/kg: 50 mg/kg/day i.p.
Description: BDF1 strain male mice (5 weeks old) were each inoculated intraperitoneally with 10^5 mouse leukemia L-1210 cells and treated once a day by intraperitoneal injection with a test compound dissolved in physiological saline for 6 consecutive days beginning from the day of inoculation. The mice were then observed for 30 days to determine the rate of prolongation of survival period=100×T/C=100×(average survival days of treated group)/(average survival days of control group).

[3] = system: mouse leukemia L-1210 cells; assay: growth inhibitory activity to cancer cells in vitro (L-1210, 48 hours); type: cell-based; settings: for inhibition at 5 µg/mL: L1210, 5 mcg/ml; for inhibition at 10 µg/mL: L1210, 10 mcg/ml; for inhibition at 20 µg/mL: L1210, 20 mcg/ml; for inhibition at 40 µg/mL: L1210, 40 mcg/ml; for inhibition at 80 µg/mL: L1210, 80 mcg/ml; for IC50: L1210, L-1210 cells, read-out: 50% inhibitory concentration; for inhibition at 2.5 µg/mL: L1210, 2.5 mcg/ml; for inhibition at 1.25 µg/mL: L1210, 1.25 mcg/ml
Protocol: DBA/2 mice were implanted with 10^5 mouse leukemia L-1210 cells. The ascites collected asceptically from the mice after 4 days of feeding was washed three times with physiological saline to obtain L-1210 cells, which was then suspended in RPMI 1640 culture medium [G. E. Moore, Journal of the American Medical Association, Vol. 199, 519 (1967); H. J. Morton, In Vitro, Vol. 6, 89 (1970)] to which 10% fetal calf serum and 5 μM 2-mercaptoethanol had been added, and the resulting suspension was diluted to 5×10^4 L-1210 cells per 0.9 ml. A microplate carrying 0.9 ml of the cell suspension and 0.1 ml of the culture medium containing the sample being tested was kept in a carbon dioxide incubator at 37° C. After 48 hours of cultivation, the number of cells was measured by means of a Coulter Counter (Coulter Electronics, Inc., U.S.A.) to obtain the growth inhibition (%)=(1--T/C )×100=[1-(number of grown cells in medium containing sample/(number of grown cells in control medium)]×100. The 50% growth inhibitory concentration was calculated from the values of growth inhibition at varied sample concentrations. The results of tests on typical compounds of this invention for the growth inhibition of L-1210 cells were as shown in Table 6.

[4] = acute toxicity in mice (single intraperitoneal administration); settings: mouse, in vivo, ip; mice, single i.p.; read-out: LD50 (median lethal dose on single administration)
Protocol: as §1
*Median lethal dose on single administration.

[5] = read-out: Growth inhibition (%), (1-T/C) × 100

| SMILES | MTD [1] [mg/kg] | responders at 1.56 mg/kg [2] [%] | response vs control in vivo at 1.56 mg/kg [2] [%] | responders at 3.13 mg/kg [2] [%] | response vs control in vivo at 3.13 mg/kg [2] [%] | responders at 6.25 mg/kg [2] [%] | response vs control in vivo at 6.25 mg/kg [2] [%] | responders at 12.5 mg/kg [2] [%] | response vs control in vivo at 12.5 mg/kg [2] [%] | responders at 25 mg/kg [2] [%] | response vs control in vivo at 25 mg/kg [2] [%] | responders at 50 mg/kg [2] [%] | response vs control in vivo at 50 mg/kg [2] [%] | inhibition at 5 µg/mL [3, 5] [%] | inhibition at 10 µg/mL [3, 5] [%] | inhibition at 20 µg/mL [3, 5] [%] | inhibition at 40 µg/mL [3, 5] [%] | IC50 [3] [µg/mL] | LD50 [4] [mg/kg] | inhibition at 2.5 µg/mL [3, 5] [%] | further results |
| --- | --- | --- | --- | --- | --- | --- | --- | --- | --- | --- | --- | --- | --- | --- | --- | --- | --- | --- | --- | --- | --- |
| COC(NC(=O)CCCCCCCCNC(=N)N)C(=O)NCCCCNCCCN (stereo not shown) [Compound 11, N-[4-(3-aminopropyl)aminobutyl]-2-(9-guanidinononanamido)-2-methoxyethanamide] | > 75 | 0 | 200 | 50 | > 357 | 75 | > 393 | 50 | > 357 | 0 | 0 | 0 | 0 | 35 | 52.2 | 59.4 | 71.8 | 10 (≈ 23.3 µM) | 12.5 to 25 | – | responders at 0.2 mg/kg [2]: 0%; response vs control in vivo at 0.2 mg/kg [2]: 107%; responders at 0.39 mg/kg [2]: 0%; response vs control in vivo at 0.39 mg/kg [2]: 143%; responders at 0.78 mg/kg [2]: 0%; response vs control in vivo at 0.78 mg/kg [2]: 200%; inhibition at 80 µg/mL [3, 5]: 77.9% |
| CCOC(NC(=O)C[C@@H](O)CCCCNC(=N)N)C(=O)NCCCCNCCCN (stereo partly shown) [Compound 23, N-[4-(3-aminopropyl)aminobutyl]-2-(7-guanidino-3-hydroxyheptanamido)-2-ethoxyethanamide] | > 150 | – | – | 0 | 104 | 0 | 119 | 0 | 129 | 0 | 200 | – | – | 85.5 | 93 | 96.1 | 96.4 | 2.2 (≈ 5.1 µM) | > 25 | 58.5 | – |
| N=C(N)NCCCCCCCC(=O)NC(O)C(=O)NCCCCNCCCN (stereo not shown) [Compound 5, N-[4-(3-aminopropyl)aminobutyl]-2-(8-guanidinooctanamido)-2-hydroxyethanamide] | > 150 | 0 | 104 | 0 | 118 | 0 | 125 | 0 | 181 | 0 | 306 | 0 | 0 | 29.1 | 40 | 54.2 | 66 | 18 (≈ 44.8 µM) | 25 to 50 | 24.9 | inhibition at 80 µg/mL [3, 5]: 88.5%; inhibition at 160 µg/mL ([3]; L1210, 160 mcg/ml, read-out: Growth inhibition (%), (1-T/C) × 100): 96.8% |
| N=C(N)NCCCCCCCCC(=O)NC(O)C(=O)NCCCCNCCCN (stereo not shown) [Compound 6, N-[4-(3-aminopropyl)aminobutyl]-2-(9-guanidinononanamido)-2-hydroxyethanamide] | > 75 | 75 | > 393 | 50 | > 386 | 100 | > 429 | 100 | > 429 | 0 | 0 | 0 | 0 | 45.5 | 50.3 | 57.5 | – | 8 (≈ 19.3 µM) | 12.5 to 25 | 40.3 | responders at 0.2 mg/kg [2]: 50%; response vs control in vivo at 0.2 mg/kg [2]: > 354%; responders at 0.39 mg/kg [2]: 50%; response vs control in vivo at 0.39 mg/kg [2]: > 383%; responders at 0.78 mg/kg [2]: 100%; response vs control in vivo at 0.78 mg/kg [2]: > 429%; inhibition at 1.25 µg/mL [3, 5]: 38% |
| N=C(N)NCCCC(=O)NC(O)C(=O)NCCCCNCCCN (stereo not shown) [Compound 1, N-[4-(3-aminopropyl)aminobutyl]-2-(4-guanidinobutanamido)-2-hydroxyethanamide] | > 300 | – | – | – | – | – | – | – | – | – | – | – | – | 89.3 | 101 | 100 | – | 2.4 (≈ 6.95 µM) | > 50 | 52.2 | – |
| N=C(N)NCCCCCC=CC(=O)NC(O)C(=O)NCCCCNCCCN (stereo not shown) [Compound 17, N-[4-(3-aminopropyl)aminobutyl]-2-(8-guanidino-2-octenamido)-2-hydroxyethanamide] | > 75 | – | – | – | – | – | – | – | – | – | – | – | – | 13.3 | 16.5 | 33.7 | 52.5 | 70 (≈ 175 µM) | 12.5 to 25 | 4.5 | inhibition at 1.25 µg/mL [3, 5]: 2.1% |
| CCOC(NC(=O)CCCCCCNC(=N)N)C(=O)NCCCCNCCCN (stereo not shown) [Compound 12, N-[4-(3-aminopropyl)aminobutyl]-2-(7-guanidinoheptanamido)-2-ethoxyethanamide] | > 75 | – | – | – | – | – | – | – | – | – | – | – | – | 31.1 | 38.4 | 47.3 | 58.6 | 21 (≈ 50.5 µM) | 12.5 to 25 | 21.5 | inhibition at 80 µg/mL [3, 5]: 73.5% |
